Results: article PMC9599717, “The Multicellular Effects of VDAC1 N-Terminal-Derived Peptide” (Biomolecules, 2022)
pIC50: −log10 of the molar value.

Experiments:
U-87MG cells [1] = assay: Cell morphology / cell size by light microscopy; format: cell-based, human; settings: 16 h treatment
Description: (§1) Cells were seeded in a 6-well plates, treated with D-Δ(1-18)N-Ter-Antp peptide for 24 h, and monitored with the Holomonitor live cell imaging system (Holographic Imaging, Lund, Sweden) for 24 h at 37 °C and 5% CO2 or with a microscope (LX2-KSP; Olympus, Shinjuku, Tokyo, Japan), with images captured by a CCD camera.
Figure 2 D-Δ(1-18)N-Ter-Antp-induced changes in cell morphology and cell membrane permeability. (A,B) U-87MG cells were treated with the indicated concentrations of D-Δ(1-18)N-Ter-Antp peptide for 16 h, and cell morphology was monitored by light microscope (A). Quantification of cell size (B). (C,D) U-87MG cells were untreated or treated with 10 μM of D-Δ(1-18)N-Ter-Antp peptide or N-TerΔ(21-26)-Antp for 24 h, and cell morphology was monitored by light microscope (C). Quantification of cell size (D). (E,F) Cells were stained with anti-vinculin antibodies, followed by secondary anti-mouse-cy3 antibodies. Scale bars are 20 μm. White arrows point to focal adhesion (E). Quantification of vinculin staining intensity (F). (G) D-Δ(1-18)N-Ter-Antp-induced cell membrane permeability changes in HeLa cells. Cells were treated with D-Δ(1-18)N-Ter-Antp peptide (10 µM) for 6 h and subjected to FM4-64 dye staining. Yellow arrows point to apoptotic cells with apoptotic bodies. (H) Quantification of fluorescence intensity of FM4-64. * p < 0.05, *** p < 0.001, **** p < 0.0001 (n = 3). […]

[2] = tested on: HeLa (human cervix adenocarcinoma); assay: Cell death by PI staining and flow cytometry (FACS), HeLa; format: cell-based; settings: HeLa cells
Description: MEC-1 cells were incubated in a serum-free medium with various concentrations of VDAC1-based peptides for 1.5 h at room temperature (RT), collected by centrifugation, washed with phosphate-buffered saline (PBS), and analyzed for cell death. Adherent cancer cells were seeded in culture plates and allowed to adhere overnight in a sterile cell culture incubation chamber maintained at 37 °C and 5% CO2. The next day, media was removed from the plates, and cells were treated with various concentrations of VDAC1-based peptides for the indicated time in serum-free Dulbecco’s Modified Eagle Medium (DMEM) with and without DMSO (final 0.15%) as a control for 6 h at 37 °C and 5% CO2. Cells were trypsinized, centrifuged (1500× g, 5 min), and washed with PBS.
Cell death was analyzed by the propidium iodide (PI) staining, followed by flow cytometry with the iCyt sy3200 Benchtop Cell Sorter/Analyzer and analysis with EC800 v 1.3.7 software (Sony Biotechnology Inc., San Jose, CA, USA). Apoptosis was analyzed by PI and annexin V-FITC staining, which was carried out according to the manufacturer’s instructions with minor modifications. […] Next, cells were washed and PI (6.25 μg/mL), was added immediately before flow cytometry At least 10,000 events were collected, recorded on a dot plot, and analyzed by flow cytometry. […]

U-87MG cells [3] = assay: Live-cell imaging (HoloMonitor) of cell division and re-fusion of daughter cells; format: cell-based, human; parameters: dose or concentration left out as unconfirmed; settings: 24 h incubation
Description: as §1
Figure 8 D-Δ(1-18)N-Ter-Antp peptide induced apoptosis and altered cell division. (A) HeLa cells were treated with D-Δ1-18N-Ter-Antp (5 μM, 24 h) and monitored using a live-imaging microscope (HoloMonitor). The time course of cell division is presented. Division–fusion phase times are represented in relation to D-Δ(1-18)N-Ter-Antp administration time (T = 0). i. The cells are in a pre-division stage. ii. The cell divides into two cells. iii. The cell becomes partially fused. iv. The cells become fully fused into one large cell. v. Finally, they become an apoptotic cell. (B,C) HeLa cells incubated with the peptide (10 μM, 24 h) and then stained with anti-tubulin antibodies, followed by secondary anti-mouse-cy3 antibodies (red) followed by actin staining with Phalloidin-488 (green), nuclei stained with DAPI (blue) and visualized by confocal microscopy. Cells with divided nuclei that were connected or in a re-fused state are circled (C). (D) Schematic illustration of cell division phases of control and D-Δ(1-18)N-Ter-Antp peptide-treated cells.
Figure A1 Vedio S1. […]

## 19-FTKGYGFGL-26- RQIKIWFQNRRMKWKK [D-Δ(1-18)N-Ter-Antp]
U-87MG cells [1]
  Enlarged cell area relative to untreated cells: up to 3 fold
[2]; 6 h
  Maximal cell death (at the concentration for maximal cell death): 100%
[2]; 6 h incubation, serum-free medium, PI staining and FACS, read-out: IC50, peptide concentration required for half-maximal cell death activity
  pIC50: 5.70
U-87MG cells [3]
  Percentage of cells with re-fusion of daughter cells: 60–80%
